# Measurements as given in PubChem BioAssay AID2060614 (Molecular Pharmacology Branch, DTP, NCI, 2025).
# Values joined by “and” are separate entries in the source; they are usually repeats but may differ in a detail not shown here. Identical values can stand only once.
# Tested on: 598228-144-R-J1-PDC complex spheroids, viability
# Experiment: Anticancer human tumor 598228-144-R-J1-PDC patient-derived serous endometrial adenocarcinoma cell line growth inhibition [CLK]
# Details: for viability, T/C: stronger effect = lower value
# In short: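 Multi-cell-type spheroids combined patient-derived tumor cells with HUVEC endothelial cells and human mesenchymal stem cells. Paired agents were dosed in half-log steps down from about clinical Cmax, or from 10 microM where Cmax was unknown.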
# [1] = curve of first compound, second compound 0.0316 µM
# [2] = curve of first compound, second compound 0.1 µM
# [3] = curve of first compound, second compound 0.316 µM
# [4] = curve of first compound, second compound 1 µM
# [5] = curve of first compound, second compound 3.16 µM
# [6] = curve of first compound, second compound 10 µM
# [7] = second compound 0.0316 µM, first compound 0.0316 µM
# [8] = second compound 0.0316 µM, first compound 0.1 µM
# [9] = second compound 0.0316 µM, first compound 0.316 µM
# [10] = second compound 0.0316 µM, first compound 1 µM
# [11] = second compound 0.0316 µM, first compound 3.16 µM
# [12] = second compound 0.0316 µM, first compound 10 µM
# [13] = second compound 0.1 µM, first compound 0.0316 µM
# [14] = second compound 0.1 µM, first compound 0.1 µM
# [15] = second compound 0.1 µM, first compound 0.316 µM
# [16] = second compound 0.1 µM, first compound 1 µM
# [17] = second compound 0.1 µM, first compound 3.16 µM
# [18] = second compound 0.1 µM, first compound 10 µM
# [19] = second compound 0.316 µM, first compound 0.0316 µM
# [20] = second compound 0.316 µM, first compound 0.1 µM
# [21] = second compound 0.316 µM, first compound 0.316 µM
# [22] = second compound 0.316 µM, first compound 1 µM
# [23] = second compound 0.316 µM, first compound 3.16 µM
# [24] = second compound 0.316 µM, first compound 10 µM
# [25] = second compound 1 µM, first compound 0.0316 µM
# [26] = second compound 1 µM, first compound 0.1 µM
# [27] = second compound 1 µM, first compound 0.316 µM
# [28] = second compound 1 µM, first compound 1 µM
# [29] = second compound 1 µM, first compound 3.16 µM
# [30] = second compound 1 µM, first compound 10 µM
# [31] = second compound 3.16 µM, first compound 0.0316 µM
# [32] = second compound 3.16 µM, first compound 0.1 µM
# [33] = second compound 3.16 µM, first compound 0.316 µM
# [34] = second compound 3.16 µM, first compound 1 µM
# [35] = second compound 3.16 µM, first compound 3.16 µM
# [36] = second compound 3.16 µM, first compound 10 µM
# [37] = second compound 10 µM, first compound 0.0316 µM
# [38] = second compound 10 µM, first compound 0.1 µM
# [39] = second compound 10 µM, first compound 0.316 µM
# [40] = second compound 10 µM, first compound 1 µM
# [41] = second compound 10 µM, first compound 3.16 µM
# [42] = second compound 10 µM, first compound 10 µM
# 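Also: spheroids exposed to compounds for seven days before readout.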
# 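For viability, T/C in this document: 100% = DMSO vehicle control wells.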
smiles,measurement,setting,value
C=CC(=O)N1CCN(c2nc(=O)n(-c3c(C)ccnc3C(C)C)c3nc(-c4c(O)cccc4F)c(F)cc23)C(C)C1 (stereo unspecified) + CN1CCN(c2cc(C(=O)Nc3cc4cc(-c5cnn(C)c5)ccc4cn3)ccn2)CC1,IC50,[1],> 10000 nM
same,IC50,[2],> 10000 nM
same,IC50,[3],< 31.6 nM
same,IC50,[4],< 31.6 nM
same,IC50,[5],< 31.6 nM
same,IC50,[6],< 31.6 nM
same,"viability, T/C",[7],128%
same,"viability, T/C",[8],130%
same,"viability, T/C",[9],121%
same,"viability, T/C",[10],138%
same,"viability, T/C",[11],159%
same,"viability, T/C",[12],128%
same,"viability, T/C",[13],128%
same,"viability, T/C",[14],122%
same,"viability, T/C",[15],132%
same,"viability, T/C",[16],160%
same,"viability, T/C",[17],162%
same,"viability, T/C",[18],121%
same,"viability, T/C",[19],20.6%
same,"viability, T/C",[20],21.9%
same,"viability, T/C",[21],20.1%
same,"viability, T/C",[22],24.2%
same,"viability, T/C",[23],25.9%
same,"viability, T/C",[24],18.4%
same,"viability, T/C",[25],1.67%
same,"viability, T/C",[26],1.68%
same,"viability, T/C",[27],2.05%
same,"viability, T/C",[28],2.47%
same,"viability, T/C",[29],2.38%
same,"viability, T/C",[30],1.47%
same,"viability, T/C",[31],1.63%
same,"viability, T/C",[32],3.15%
same,"viability, T/C",[33],2.36%
same,"viability, T/C",[34],2.16%
same,"viability, T/C",[35],3.18%
same,"viability, T/C",[36],4.16%
same,"viability, T/C",[37],0.96%
same,"viability, T/C",[38],1.09%
same,"viability, T/C",[39],2.11%
same,"viability, T/C",[40],1.48%
same,"viability, T/C",[41],4.19%
same,"viability, T/C",[42],1.94%
C=CC(=O)Nc1cc(Nc2nccc(-c3cn(C)c4ccccc34)n2)c(OC)cc1N(C)CCN(C)C,"viability, T/C",compound 0.000949 µM,106% and 86.2%
same,"viability, T/C",compound 0.003 µM,95.3% and 97.7%
same,"viability, T/C",compound 0.00949 µM,108% and 95.7%
same,"viability, T/C",compound 0.03 µM,93.7% and 93.5%
same,"viability, T/C",compound 0.0949 µM,99.3% and 92.6%
same,"viability, T/C",compound 0.3 µM,92.1% and 94.7%
same,IC50,curve of compound,> 300 nM
Nc1ccn(C2OC(CO)C(O)C2(F)F)c(=O)n1 (stereo unspecified) + CNC(=O)c1ccc(Nc2nc(OC3CCCC3)c3c(-c4ccc5nc(C)oc5c4)c[nH]c3n2)c(OC)c1,IC50,[1],< 31.6 nM
same,IC50,[2],< 31.6 nM
same,IC50,[3],54.3 nM
same,IC50,[4],53.7 nM
same,IC50,[5],48.9 nM
same,IC50,[6],44.9 nM
same,"viability, T/C",[7],50.8%
same,"viability, T/C",[8],36.9%
same,"viability, T/C",[9],27.4%
same,"viability, T/C",[10],34.7%
same,"viability, T/C",[11],39%
same,"viability, T/C",[12],34.4%
same,"viability, T/C",[13],57.3%
same,"viability, T/C",[14],33.6%
same,"viability, T/C",[15],26.9%
same,"viability, T/C",[16],36.3%
same,"viability, T/C",[17],36.4%
same,"viability, T/C",[18],34.7%
same,"viability, T/C",[19],63.4%
same,"viability, T/C",[20],34.5%
same,"viability, T/C",[21],32.2%
same,"viability, T/C",[22],29.6%
same,"viability, T/C",[23],39.5%
same,"viability, T/C",[24],37%
same,"viability, T/C",[25],65.3%
same,"viability, T/C",[26],32.6%
same,"viability, T/C",[27],23.9%
same,"viability, T/C",[28],29%
same,"viability, T/C",[29],36.4%
same,"viability, T/C",[30],28.7%
same,"viability, T/C",[31],63%
same,"viability, T/C",[32],24.2%
same,"viability, T/C",[33],26.2%
same,"viability, T/C",[34],24.3%
same,"viability, T/C",[35],34.3%
same,"viability, T/C",[36],33.6%
same,"viability, T/C",[37],60.2%
same,"viability, T/C",[38],26.9%
same,"viability, T/C",[39],21.4%
same,"viability, T/C",[40],22.6%
same,"viability, T/C",[41],26.5%
same,"viability, T/C",[42],31.5%
